Source: patent publication US7678826B2, “Organic compounds for the treatment of inflammatory or allergic conditions” (priority 2005, dated 2010)

Tests used:
[1] = target: T1, CRTh2 receptor (Homo sapiens, UniProt Q9Y5Y4); test: CRTH2 cAMP functional assay: inhibition of PGD2-mediated attenuation of forskolin-induced cAMP accumulation in CHO.K1-CRTh2 cells; assay type: cell-based; details: 10 nM PGD2, 5 μM forskolin, cAMP Alphascreen
T1 construct: expressed in transfected cells; host or cells: CHO.K1 (Chinese Hamster Ovary) cells, CHO.K1-CRTh2
T1 sequence (Q9Y5Y4 1-395): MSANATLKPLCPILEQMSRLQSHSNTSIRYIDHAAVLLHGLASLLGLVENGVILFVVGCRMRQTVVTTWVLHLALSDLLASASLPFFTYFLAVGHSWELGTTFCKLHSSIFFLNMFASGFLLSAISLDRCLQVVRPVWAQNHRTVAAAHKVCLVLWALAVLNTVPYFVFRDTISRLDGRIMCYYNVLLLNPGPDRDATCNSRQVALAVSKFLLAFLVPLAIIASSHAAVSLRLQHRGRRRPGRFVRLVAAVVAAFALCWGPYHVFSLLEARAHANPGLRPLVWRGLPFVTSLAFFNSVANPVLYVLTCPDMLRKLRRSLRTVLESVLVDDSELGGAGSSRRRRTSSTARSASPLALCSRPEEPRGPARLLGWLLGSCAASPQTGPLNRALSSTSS
Procedure: Ki (dissocation constant for the inhibition) values for the CRTh2 antagonists are reported. Ki values are determined using Sigma Plot™ software, using the Cheng-Prussoff equation. Ki=IC50/1+[S]/Kd, where S is the concentration of radioligand and Kd is the dissociation constant. CRTH2 cAMP Functional Assay Protocol
This assay is conducted in CHO.K1-CRTh2 cells. cAMP is generated in the cell by stimulating cells with 5 μM forskolin, an adenylate cyclase activator. PGD2 is added to activate the CRTh2 receptor which results in the attenuation of the forskolin-induced cAMP accumulation. Potential CRTh2 antagonists are tested for their ability to inhibit the PGD2-mediated attenuation of the forskolin-induced cAMP accumulation in CHO.K1-CRTh2 cells.
For each concentration value on the dose-response curve, test compounds are prepared in assay stimulation buffer (HBSS, 5 mM HEPES, 10 μM IBMX±0.1% human serum albumin) containing DMSO (3% vol/vol) and 5 μL/well is added to an assay plate (384-well white optiplate).
CHO.K1-CRTh2 cultured in tissue culture flasks are washed with PBS and harvested with dissociation buffer. Cells are washed with PBS and resuspended in stimulation buffer to a concentration of 0.4×10^6/mL and added to the assay plate (10 μL/well).
The assay plate is incubated at room temperature on a shaker for 15 minutes.
A mix of agonist (10 nM Prostaglandin D2) and 5 μM forskolin is prepared in assay stimulation buffer and added to the assay plate (5 μL/well).
In addition, a cAMP standard is serially diluted in assay stimulation buffer and added to separate empty wells on the assay plate (20 μL/well). The cAMP standard allows for the quantification of cAMP generated in CHO.K1-CRTH2 cells.
The assay plate is incubated at room temperature on a shaker for 60 minutes.
Cell lysis buffer (Lysis buffer: Milli-Q H2O, 5 mM HEPES, 0.3% Tween-20, 0.1% human serum albumin) is added to a bead mix (containing Alphascreen™ anti-cAMP acceptor beads 0.06 units/μL, Alphascreen™ streptavidin-coated donor beads 0.06 units/μL, biotinylated cAMP 0.06 units/μL, 10 μM IBMX) is prepared under darkened conditions 60 minutes prior to addition to the assay plate. The resulting lysis mix is added to all wells of the assay plate (40 μL/well).
The assay plate is sealed with Topseal-S™ and incubated in the dark at room temperature on a shaker for 45 minutes. The plate is then counted using a Packard Fusion™ instrument.
The resulting counts per minute are converted to nM cAMP by using the prepared cAMP standard curve. IC50 values (concentration of CRTh2 antagonist required to inhibit 50% of the PGD2-mediated attenuation of forskolin-induced cAMP accumulation in CHO.K1-CRTh2 cells) are then determined using Prism™ software.

[2] = target: T1, CRTh2 receptor; test: Filtration binding assay: competition with [3H]-PGD2 on CHO.K1-CRTh2 membranes (results text calls it SPA binding assay); details: [3H]-PGD2 2.5 nM, Cheng-Prussoff
Procedure: The binding of CRTh2 antagonists is determined using membranes prepared from human CRTh2-expressing Chinese Hamster Ovary cells (CHO.K1-CRTh2). To produce cell membranes CHO.K1-CRTh2 cells cultured in roller bottles are harvested using cell dissociation buffer (Invitrogen). The cells are pelleted by centrifugation (167 g, 5 minutes). The cell pellet is incubated in hypotonic buffer (15 mM Tris-OH, 2 mM MgCl2, 0.3 mM EDTA, 1 mM EGTA, 1× Complete™ tablet) at 4° C. for 30 minutes. At 4° C. cells are homogenized using a Polytron® (IKA Ultra Turrax T25) for 5 bursts of 1 second. The homogenate is centrifuged (Beckman Optima TM TL Ultracentrifuge, 48,000 g, 30 minutes at 4° C.). The supernatant is discarded and the membrane pellet re-suspended in homogenisation buffer (75 mM Tris-OH, 12.5 mM MgCl2, 0.3 mM EDTA, 1 mM EGTA, 250 mM Sucrose, 1× Complete™ tablet. Membrane preparations are aliquoted and stored at […]. The protein content is estimated using Bradford Protein Assay Dye (Bio Rad).
The binding of [^3H]-PGD2 (157 Ci/mmol) to CHO.K1-CRTh2 membranes is determined in the absence (total binding) and presence (non-specific binding) of unlabelled PGD2 (1 μM). Subtraction of the cpm (counts per minute) of [^3H]-PGD2 binding in presence of excess unlabelled PGD2 from that observed in the absence of excess unlabelled PGD2 is defined as specific binding. Active CRTh2 antagonists are able to compete with [^3H]-PGD2 for binding to the CRTh2 receptor and are identified in a decrease in the number of cpm bound.
The assay is performed in Greiner U-bottomed 96 well-plates, in a final volume of 100 μL/well. CHO.K1-CRTh2 membranes were diluted in assay buffer (10 mM HEPES-KOH (pH 7.4), 1 mM EDTA and 10 mM MnCl2) and 10 μμg are added to each well. [^3H]-PGD2 is diluted in assay buffer and added to each well at a final concentration of 2.5 nM. To determine non-specific binding, [3H]-PGD2 binding to the CRTh2 receptor is competed with using unlabelled PGD2 at a final well concentration of 1 μM. The experiment is done in triplicate, with reagents added to the wells as follows: • 25 μL assay buffer for total binding or • 25 μL PGD2 to determine non-specific binding • 25 μL [^3H]PGD2 • […] membranes • 25 μL test compound in DMSO/assay buffer
The plates are incubated at RT on a shaker for 1 hour, and then harvested (Tomtec Harvester 9600) onto GF/C filter plates using wash buffer (10 mM HEPES-KOH, pH 7.4). […] Plates are then counted using a Packard Top Count instrument, Plates are then read on the Packard Topcount with the 3H Scintillation program (1 minute/well).
Ki (dissocation constant for the inhibition) values for the CRTh2 antagonists are reported. Ki values are determined using Sigma Plot™ software, using the Cheng-Prussoff equation. […]

Row | Compound | IC50 [1] | Ki [2]
1 | CC(Oc1ccc(Cl)cc1Cc1cc(Cl)ccc1OCC(=O)O)C(=O)N1CCCC1 (racemic) [Example 1, {4-Chloro-2-[5-chloro-2-(1-methyl-2-oxo-2-pyrrolidin-1-yl-ethoxy)-benzyl]-phenoxy}-acetic acid] | 22.5 nM | 40.3 nM
2 | CC(Oc1ccc(Cl)cc1Cc1cc(Cl)ccc1OCC(=O)O)C(=O)N1CCOCC1 (centres unmarked) [Example 3, {4-Chloro-2-[5-chloro-2-(1-methyl-2-morpholin-4-yl-2-oxo-ethoxy)-benzyl]-phenoxy}-acetic acid] | 22.5 nM | 95 nM
3 | CC(Oc1ccccc1Cc1cc(Cl)ccc1OCC(=O)O)C(=O)N1CCCC1 (single isomer, unassigned) [8 (enantiomer 1), {4-Chloro-2-[2-((R/S)-1-methyl-2-oxo-2-pyrrolidin-1-yl-ethoxy)-benzyl]-phenoxy}-acetic acid] | 25 nM | 60.2 nM
4 | CC(Oc1ccccc1Cc1cc(Cl)ccc1OCC(=O)O)C(=O)N1CCCC1 (centres unmarked) [Example 7, {4-Chloro-2-[2-(1-methyl-2-oxo-2-pyrrolidin-1-yl-ethoxy)-benzyl]-phenoxy}acetic acid] | 37.5 nM | 82.4 nM
